# Assay results from patent publication US10214508B2, “Nitrogen-containing heterocyclic compound” (Takeda Pharmaceutical Company Limited, priority 2014, dated 2019).
# Structures can show the parent of a compound that is named as a salt.
# Molecular target: T1, human M1 receptor (hCHRM1) (Homo sapiens, UniProt P11229)
# T1 construct: expressed in transfected cells
# T1 sequence (P11229 1-460): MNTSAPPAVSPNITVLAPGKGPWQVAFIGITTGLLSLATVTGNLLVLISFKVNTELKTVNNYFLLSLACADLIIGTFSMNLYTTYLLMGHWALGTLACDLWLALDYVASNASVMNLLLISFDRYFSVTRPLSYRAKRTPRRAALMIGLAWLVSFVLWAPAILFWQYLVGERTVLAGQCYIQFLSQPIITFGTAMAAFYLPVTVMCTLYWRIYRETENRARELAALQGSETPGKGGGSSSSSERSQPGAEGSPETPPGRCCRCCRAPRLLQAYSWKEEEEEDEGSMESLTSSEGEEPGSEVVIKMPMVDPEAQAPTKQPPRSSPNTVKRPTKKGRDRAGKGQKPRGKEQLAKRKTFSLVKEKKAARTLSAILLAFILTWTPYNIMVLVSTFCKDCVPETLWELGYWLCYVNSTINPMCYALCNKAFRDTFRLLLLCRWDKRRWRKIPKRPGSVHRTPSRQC
# Assay: Measurement of M1 receptor positive allosteric modulator (M1PAM) activity, calcium fluorescence (FLIPRtetra)
# Assay type: cell-based
# Details: 10 μM test compound with acetylcholine at EC20 (final 0.6-0.8 nM); 100% = acetylcholine 1 μM, 0% = DMSO; CHO-K1 cells expressing hCHRM1
# Outline: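 CHO-K1 cells stably expressing hM1 were Fluo-4-loaded; compound added with acetylcholine at EC20 (0.6-0.8 nM final), calcium fluorescence read 1 min on FLIPRtetra. Activity scaled between DMSO (0%) and 1 μM acetylcholine (100%); inflection point of concentration–response reported as IP.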
row,SMILES,activity (%) at 10 μM
1,"Cc1nc(C(=O)N[C@H]2COCC[C@@H]2O)cc(Cc2ccc(-n3cccn3)cc2)c1Cl [Example 99, 1,5-anhydro-2-(((5-chloro-6-methyl-4-(4-(1H-pyrazol-1-yl)benzyl)pyridin-2-yl)carbonyl)amino)-2,4-dideoxy-L-threo-pentitol]",96%
2,"Cc1cnc(C(=O)NC2(CO)CCCC2)cc1Cc1ccc(-c2ccn(C)n2)cc1 [Example 20, N-(1-(hydroxymethyl)cyclopentyl)-5-methyl-4-(4-(1-methyl-1H-pyrazol-3-yl)benzyl)pyridine-2-carboxamide]",75%
3,"COc1nc(C(=O)N[C@H]2CCCC[C@@H]2O)cc(Cc2ccc(-c3ccn(C)n3)cc2)c1C [Example 88, N-((1S,2S)-2-hydroxycyclohexyl)-6-methoxy-5-methyl-4-(4-(1-methyl-1H-pyrazol-3-yl)benzyl)pyridine-2-carboxamide]",99%
4,"Cc1nc(C(=O)N[C@H]2CCC[C@@H]2O)cc(Cc2ccc(-c3ccn(C)n3)cc2)c1Cl [Example 97, 5-chloro-N-((1S,2S)-2-hydroxycyclopentyl)-6-methyl-4-(4-(1-methyl-1H-pyrazol-3-yl)benzyl)pyridine-2-carboxamide]",93%
5,"COc1ccc(Cc2cc(C)nc(C(=O)N[C@H]3CCCC[C@@H]3O)c2)cc1 [Example 71, N-((1S,2S)-2-hydroxycyclohexyl)-4-(4-methoxybenzyl)-6-methylpyridine-2-carboxamide]",69%
6,"Cc1cnc(C(=O)N[C@H]2CCC[C@@H]2O)cc1Cc1ccc(-c2cn(C)nc2C)cc1 [Example 14, 4-(4-(1,3-dimethyl-1H-pyrazol-4-yl)benzyl)-N-((1S,2S)-2-hydroxycyclopentyl)-5-methylpyridine-2-carboxamide Dihydrochloride]",100%
7,"O=C(N[C@H]1COCC[C@@H]1O)c1cc(Cc2ccc(-n3cccn3)cc2)c(C(F)F)cn1 [Example 39, 1,5-anhydro-2,4-dideoxy-2-(((5-(difluoromethyl)-4-(4-(1H-pyrazol-1-yl)benzyl)pyridin-2-yl)carbonyl)amino)-L-threo-pentitol]",100%
8,"Cc1cnc(C(=O)N[C@H]2CCCC[C@@H]2O)cc1Cc1ccc(-n2cccn2)cc1 [Example 48, N-((1S,2S)-2-hydroxycyclohexyl)-5-methyl-4-(4-(1H-pyrazol-1-yl)benzyl)pyridine-2-carboxamide]",106%
9,"Cc1cnc(C(=O)N[C@H]2CCCC[C@@H]2O)cc1Cc1ccc(-n2cccn2)nc1 [Example 35, N-((1S,2S)-2-hydroxycyclohexyl)-5-methyl-4-((6-(1H-pyrazol-1-yl)pyridin-3-yl)methyl)pyridine-2-carboxamide]",102%
10,"Cc1nc(C(=O)N[C@H]2COCC[C@@H]2O)cc(Cc2ccc(-c3ccn(C)n3)cc2)c1C [Example 82, 1,5-anhydro-2,4-dideoxy-2-(((5,6-dimethyl-4-(4-(1-methyl-1H-pyrazol-3-yl)benzyl)pyridin-2-yl)carbonyl)amino)-L-threo-pentitol]",103%
11,"Cc1cnc(C(=O)NC2CC2(F)F)cc1Cc1ccc(-c2ccn(C)n2)cc1 (centres unmarked) [Example 22, N-(2,2-difluorocyclopropyl)-5-methyl-4-(4-(1-methyl-1H-pyrazol-3-yl)benzyl)pyridine-2-carboxamide]",77%
